{
  "source": "patent US11559519B2",
  "about": "“Tizanidine therapy system” (MEDRx Co., Ltd., priority 2018, dated 2023)",
  "origin": "cited, not measured here",
  "conditions": "multiple dose, placebo-controlled clinical studies",
  "data": [
    {"smiles": "Clc1ccc2nsnc2c1NC1=NCCN1", "note": "[tizanidine]", "values": [
      {"measurement": "sedation rated as severe", "result": 10, "unit": "%"},
      {"measurement": "patients who reported sedation as an adverse event", "setting": "patients receiving any dose", "result": 48, "unit": "%"}
    ]}
  ]
}
